# Experimental data published in the METLIN SMRT retention time set (Domingo-Almenara et al. 2019).
# Assay: gradient 5% acetonitrile 3 min, to 50% in 2 min, to 85% in 15 min, held 3 min, 100 µL/min
# Details: column: Zorbax Extend-C18 2.1 x 50 mm; eluents: water / acetonitrile, 0.1% formic acid
# Outline: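 Mixtures of ~100 pure standards were chromatographed on a Zorbax Extend-C18 column (2.1 × 50 mm, 1.8 μm) at 100 μL/min using water and acetonitrile, each with 0.1% formic acid. Detection used a quadrupole time-of-flight mass spectrometer in positive and negative ionization mode, and data collection spanned 3 months. Retention time was obtained from adduct peaks picked computationally and each checked manually.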
row,SMILES,RP-LC retention time [s]
1,CCc1nnc(-c2ccc(NS(=O)(=O)c3cccs3)cc2)o1,772
2,CC(C)OCCCNC(=O)C(C)n1c(=O)c(C(F)(F)F)nc2ccccc21 (centres undefined),972
3,O=C(c1cccs1)N1CC(Oc2cccc(-c3nc(-c4ccccc4)no3)c2)C1,1180
4,Cc1sc(C)c(S(=O)(=O)NCc2ccccc2)c1-c1cc(C(F)(F)F)on1,1140
5,COCCN1C(=O)c2ccccc2C(C(=O)NCCCN2CCCCC2)C1c1cccs1 (centres undefined),612
6,CC(C)(NC(=O)c1cnccn1)c1nc2c(c(C(N)=O)n1)OCO2,598
7,COc1cccc(CNC(=O)Nc2cc3c(cc2Oc2ccccc2)n(C)c(=O)n3C)c1,840
8,COc1ccc(OCc2noc(CNC(=O)CCC(=O)c3ccccc3)n2)cc1,712
9,O=C(Nc1cccc(F)c1)N1CCC2(C1)C(=O)Nc1ccccc12 (centres undefined),730
10,C[C@@H]1CN(C(=O)c2ccoc2)C[C@H]1c1nc(-c2ccncc2)no1,678
11,COCCN1C(=O)CCC2(CNC(=O)c3sccc3C)CCCC=C12 (centres undefined),804
12,Cc1ccc(C(=O)Nc2cccn3nc(C(C)C)nc23)cc1C,1030
13,O=C(O)CCCCCNc1nc(-c2ccccc2)nc2ccccc12,623
14,Clc1ccc(Nc2nc(-c3ccncc3)nc3ccccc23)cc1,848
15,O=C(Nc1cccc(F)c1)C1CCCN(c2nc3ccccc3nc2C(F)(F)F)C1 (centres undefined),1210
16,CCc1nc(OCC(=O)Nc2ccccc2Cl)c2ccccc2n1,831
17,CCOc1ccc2cccc(NC(=O)c3cnccn3)c2n1,1080
18,CC(C)NP(=O)(NC(C)C)OP(=O)(NC(C)C)NC(C)C,762
19,Cc1noc(-c2ccc(=O)n(Cc3nc(-c4ccccc4)oc3C)c2)n1,804
20,CCCNC(=O)N1CCCCCC1CN1CCC(OC)CC1 (centres undefined),604
21,CCOc1ccc(C(=O)NCC(=O)Nc2nc3ccccc3[nH]2)cc1OCC,640
22,Nc1ncnc(NCc2ccco2)c1[N+](=O)[O-],643
23,Cc1cnc(C2CC2)n1CCNS(=O)(=O)Cc1ccccc1,634
24,COc1cccc(-c2cc3c(=O)n(Cc4nc(-c5cccc(Br)c5)no4)ccn3n2)c1,1080
25,Cc1cc(Br)ccc1NC(=O)C1CCN(C(=O)c2cccn2-c2cccnc2)CC1,763
26,NC(=O)c1ccsc1NC(=O)c1ccccc1[N+](=O)[O-],669
27,COc1cc(OC)c(NC(=O)N2CCC3(CC2)N=C(c2cccc(F)c2)C(=O)N3)cc1Cl,886
28,COc1cccc(-c2noc(Cc3nnc(-c4ccc(C)c(C)c4)o3)n2)c1OC,1060

row,SMILES,RP-LC retention time [s]
1,Cc1ccc(-c2coc(-c3cccc(NS(=O)(=O)c4ccc(Br)s4)c3)n2)cc1,1300
2,Cc1ccc(Cn2nc3ccc(S(=O)(=O)N4CCCC4)cn3c2=O)cc1,895
3,CCCOc1ccc(-c2noc(Cc3nc(-c4cccc(OC)c4)cs3)n2)cc1,1360
4,CN(C)S(=O)(=O)c1ccc(C(=O)N2CCCC(c3nnc(-c4cccs4)o3)C2)cc1 (centres undefined),714
5,c1ccc(CCCCN2CCC(c3ccccc3)CC2)cc1,851
6,CCOc1cccc(CNc2c(C(=O)OC)c(=O)[nH]c3c(Cl)cccc23)c1,873
7,CCOC(=O)CC(NC(=O)N1CCC2(CC1)NC(=O)c1ccccc1O2)c1ccccc1 (centres undefined),782
8,OCCNCc1ccc(-c2cccc(Cl)c2)o1,987
9,COc1cc(OC)c(NC(=O)Cn2cc3c(n2)CCCC3)cc1Cl,906
10,Cc1ccc(NC(=O)CSc2nnc3c4cc(-c5ccc(Cl)cc5)nn4ccn23)cc1F,1010
11,O=C(CN1C(=O)COc2ccc(C(=O)N3CCCCC3)cc21)N1CCc2ccccc2C1,788
12,CS(=O)(=O)N(Cc1cccnc1)C1CN(C(=O)Nc2ccc3c(c2)OCCO3)C1,551
13,Cc1nc(-c2cccnc2)n2c(=O)n(CCc3ccccc3)nc2c1C,786
14,Cc1ccsc1C(=O)Nc1ccccc1SCc1nnc(-c2ccccc2)o1,1080
15,CCNC(=O)c1nc2ccccc2n(CC)c1=O,659
16,CCN1C(=O)C2(CCN(C(C)=O)CC2)c2ccccc21,707
17,O=C(Cn1nc2c3ccc(F)cc3ncn2c1=O)Nc1ccc2c(c1)OCO2,707
18,CCc1cccc(NC(=O)N(C)CC2CCOCC2)c1,795
19,CN(C)S(=O)(=O)NCc1nnnn1C1CCCCC1,681
20,O=c1[nH]c2ccc(S(=O)(=O)Nc3cccc(C(F)(F)F)c3)cc2[nH]1,664
21,Cc1ccc(CNC(=O)C2(C)Oc3cccnc3NC2=O)cc1 (centres undefined),702
22,O=C(CC1CCCCN1S(=O)(=O)c1ccc(Cl)cc1)NCc1cccnc1 (centres undefined),568
23,O=C(O)c1nnn(-c2ccc(F)cc2)c1-c1cccnc1,629
24,Cn1cc(S(=O)(=O)N2CCC(C(=O)NC3CCCCC3)CC2)cc1C(=O)N1CCCC1,736
25,O=C(NCc1cccnc1)c1nc2ccccn2c1-c1ccsc1,589
26,CN1c2ccc(Cl)cc2C(=O)NC12CCN(C(=O)Nc1ccc(F)cc1)CC2,788
27,Cc1ccsc1C(=O)N1C[C@@H]2CCCN3CCC[C@@H]([C@H]23)[C@H]1CCCC(=O)N1CCOCC1,593

# Next, values leading:
row,RP-LC retention time [s],SMILES
1,1010,CC(C)CCN1C(=O)CC[C@]2(C(=O)N3CCN(c4ccc(F)cc4)CC3)CCCC[C@@H]12
2,797,COc1ccccc1CNc1c(-c2nc(C(C)C)no2)cnc2nc(C)ccc12
3,644,COC(=O)CNC(=O)N1CCC(N2CCN(Cc3ccc(C)cc3)C(=O)C2=O)CC1
4,570,CN1CCN(CCNC(=O)C2CCN(Cc3cn(C)c4ccc(Cl)cc34)CC2)CC1
5,1180,CCCc1ccc(-c2cc(C(=O)N3CCN(c4ncccn4)CC3)c3ccccc3n2)cc1
6,632,COc1cccc(-n2c(N3CCCC(C(=O)NCCN4CCCCC4)C3)nc3ccsc3c2=O)c1 (centres undefined)
7,1260,CC(C)c1ccc(N2C(=O)C3N=NN(Cc4nc(-c5cccc(C(F)(F)F)c5)no4)C3C2=O)cc1 (centres undefined)
8,981,CC(C)(C)NC(=O)CN1C(=O)C2CCCCN2c2ccc(S(=O)(=O)N3CCCCC3)cc21 (centres undefined)
9,734,COC(=O)c1ncn2c1C(=O)N(c1cccc(C)c1)C(C)(C(=O)NCc1ccc(C)cc1)C2 (centres undefined)
10,770,O=C(O)c1cnc(N2CCOCC2)nc1-c1cccc(Cl)c1
11,647,CC(C)c1cc(CNc2nc(Nc3cc(C4CC4)[nH]n3)cc(N3CCN(C)CC3)n2)on1
12,670,O=C(NCc1ccccc1C(F)(F)F)C1CCN(c2cc(N3CCOCC3)ncn2)CC1
13,1030,Cc1ccc(Cn2c(N3CCCC(C(=O)NCCC(C)C)C3)nc3ccsc3c2=O)cc1 (centres undefined)
14,907,COc1ccc(N2CCN(C(=O)Cn3cccc3-c3nnc(-c4ccccc4)o3)CC2)cc1
15,884,Cc1cccc(CNC(=O)c2cc3n(n2)CC(C)(C(=O)NC2CCCCC2)N(C)C3=O)c1 (centres undefined)
16,919,CCc1nc(C)c(C)c2nn(Cc3cccc(C#N)c3)c(=O)n12
17,657,CCCOc1nccnc1N1CCC(N(C)C(=O)c2ccc(C)nc2)C1 (centres undefined)

row,RP-LC retention time [s],SMILES
1,557,CCn1cc(C(=O)NCCn2c(C)cnc2C2CCC2)cn1
2,713,O=C(C1CCN(c2nc3cccnc3s2)CC1)N1CCCCC1
3,1320,CCCN1C(=O)COc2ccc(-c3noc(-c4ccc(OCC)cc4)n3)cc21
4,790,CC(CCc1ccccc1)NC(=O)C1CCN(Cc2cn(C)c3ccc(Cl)cc23)CC1 (centres undefined)
5,708,COCCC(=O)NC1CCN(C2=NS(=O)(=O)C(c3ccc(C)cc3)=C2C)CC1
6,776,COc1ccc(C2(C(=O)N3CCC([C@H]4[C@@H](OC)C(=O)N4C(C)C)CC3)CC2)cc1
7,976,COc1cc(-c2noc(-c3ncn4c3COC(c3ccc(F)cc3)C4)n2)cc(OC)c1OC (centres undefined)
8,754,CC(CNC(=O)C1CCN(C(=O)c2ncn3c2COC(c2ccc(F)cc2)C3)CC1)c1ccccc1 (centres undefined)
9,861,COc1cccc(NC(=O)N2CCC(n3c(C(F)(F)F)nc4cccnc43)CC2)c1
10,723,CC(=O)c1ccc(N2CCN(C(=O)C3Oc4ccccc4NC3=O)CC2)cc1 (centres undefined)
11,960,O=C(NC1CCCC1)c1nnc(-c2ccc(S(=O)(=O)N3CCCCC3)cc2)o1
12,731,CCc1nncn1C1CCN(S(=O)(=O)c2ccc(C)c(C)c2)CC1
13,695,Cc1nc2cc(N3CCC(C(=O)Nc4ccc5c(c4)OCO5)CC3)cnc2nc1C
14,936,Cc1ccc(S(=O)(=O)N2CCC(OCc3noc(C4CCCO4)n3)CC2)cc1F (centres undefined)
15,982,CCOc1ccc(N2CC(c3nc(-c4ccc5c(c4)OCO5)no3)CC2=O)cc1 (centres undefined)
16,605,CCOC(=O)C1=C(CN2CCC(N3CCCCC3)CC2)NC(=O)NC1c1ccc(OC(C)C)cc1 (centres undefined)
17,671,Cc1cc(NC(=O)C2CCN(C(=O)c3cc(-c4ccc5c(c4)OCO5)n[nH]3)CC2)no1
